Entries after “also recorded” stand apart in the source; their conditions may differ.
Legend:
E. coli MG1655 = assay: Growth curves and CFU of lab strain treated with PNA; assay type: cell-based, Escherichia coli; settings: 10 μM
Protocol: FIG. 7. Dose response of various PNA. Optical density of a 1:10,000 dilution of MG6155 from overnight liquid culture, treated with various concentrations of antisense inhibitors was measured for 3 biological replicates with error bars as standard deviations. Normalized growth was measured as the optical density at 22 hours normalized to no treatment. An asterisk (*) indicates a significant difference (p<0.05) as compared to no treatment for each inhibitor.
FIG. 8. Antisense Inhibitors targeting novel pathways can inhibit growth of E. coli. z. (A) Growth curves of E. coli MG1655 from a 1:10,000 dilution from an overnight culture, normalized to time t=0 with 10 μM of respective antisense inhibitor. […] (B) Colony forming units per milliliter of MG1655 E. coli for respective treatment as a function of time. The CFU/mL at t=0 represents the starting culture after a 1:100,000 dilution from overnight culture. […] Significance is measured as p<0.05.
Bacterial Cell culture: The clinical isolates were obtained from the lab of Nancy Madinger at the University of Colorado Anschutz campus. Clinical isolates were grown in Cation Adjusted Mueller Hinton broth (CAMHB) (Becton, Dickinson and Company 212322) at 37° C. with 225 rpm shaking or on solid CAMHB with 1.5% agar at 37° C. Clinical isolates were maintained as freezer stocks in 90% CAMHB, 10% glycerol at −80° C. Freezer stocks were streaked out onto solid CAMHB and incubated for 16 h to produce single colonies prior to experiments. For each biological replicate, a single colony was picked from solid media and grown for 16 h in liquid CAMHB prior to experiments. Non-clinical isolates, such as E. coli MG1655 (ATCC700926) and Salmonella entorica serovar typhimurium SL1344, were cultured in liquid 2% lysogeny broth (LB) or on 2% LB with 1.5% agar for solid plates. S. typhimurium cultures were supplemented with 30 μg/mL streptomycin and SL1344 strains containing plasmids pFPV (SL1344-mCherry) or pRG1 modified with a lacIq promoter (SL1344-Holin) were supplemented with 100 μg/mL ampicillin. Freezer stocks were stored in 60% LB broth, 40% glycerol at −80° C. Freezer stocks were streaked out onto solid LB and incubated for 16 h to produce single colonies before experiments. For biological replicates, single colonies were started in liquid LB and grown for 16 hours prior to experiments. E. coli MG1655 PNA growth experiments were carried out in M9 media (1×M9 minimal media salts solution (MP Biomedicals), 2.0 mM MgSO4, and 0.1 mM CaCl2 in sterile water) with 0.4% glucose.
PNA growth assay: Biological replicates were diluted 1:10,000 into treatment condition in 384-well plates and measured for 24 h in a Tecan GENios at 562 nm with a bandwidth of 35 nm. Media absorbance blanks were subtracted from data prior to analysis. […]

[1] = test system: intracellular SL1344 S. typhimurium in HeLa cells; assay: Salmonella infection of HeLa cells and PNA treatment (T3SS-PNA or naked PNA); assay type: cell-based, Salmonella enterica serovar typhimurium; settings: for reduction of intra-epithelial Salmonella CFU: PNA delivered via the T3SS, vs no treatment, p<0.05; for reduction of intra-epithelial Salmonella CFU / clearing of infection (in words): 10 μM, 18 hours; for GFP expressing Salmonella in images (in words): T3SS-PNA treatment, compared to no treatment or Naked-PNA treatment; for clearing of infection (in words): naked PNA added exogenously after infection, compared to no treatment
Protocol: FIG. 4. Establishing the bacterial Type III secretion system (T3SS) for PNA transport. (A) Schematic showing enhancement of PNA delivery into HeLa cells using the bacterial T3SS of Salmonella enterica serovar typhimurium (STm) for treatment of an intracellular infection of STm. HeLa cells were seeded and allowed to grow for 24 h. SL1344 GFP STm was added at a MOI of 10:1 and allowed to infect HeLa cells for 45 min following two separate conditions: (Top) No PNA is added during this time, termed here as Naked PNA treatment, (Bottom) PNA is added at the time of infection at t=0 to utilize the T3SS, termed here as T3SS-PNA treatment. The T3SS-PNAs enter Salmonella during 45 minutes of incubation due to transport enhanced by the cell penetrating peptides, followed by entry into host cells via T3SS encoding and PNA carrying STm. (Top and Bottom). After 45 minutes infected HeLa cells are washed and treated with media containing gentamicin for 75 minutes to kill extracellular bacteria. The cells are then incubated for 18 h with media containing gentamicin following the two separate conditions: (Top) PNA supplied after infection for Naked PNA treatment. (Bottom) No PNA is added after infection. Post 18 hours of treatment HeLa cells are fixed for imaging or lysed for Colony forming Unit (CFU) analysis. (B) Representative images of uninfected (Top left), and infected HeLa cells without treatment (Bottom left). Top (right) panels show representative images of infected HeLa cells following Naked-PNA treatment. Bottom (right) panels show representative images of infected HeLa cells following T3SS-PNA treatment. HeLa cells are stained with nucleic stain DAPI (blue), and membrane stain Phalloidin (pink), and green pixels represent intracellular SL1344 S. typhimurium fluorescing GFP (green). […] (C) Intracellular S. typhimurium load (CFU/mL) in presence or absence of treatment. Significant reduction in STm CFU in HeLa cells when PNA is delivered using T3SS.
For all cases, HeLa cells were infected at time t=0 with SL1344 for 45 minutes with a multiplicity of infection (MOI) of bacteria to HeLa cells of approximately 10:1. For the T3SS-PNA treatment method HeLa cells were co-incubated with SL1344 and either α-rpsD or α-lexA for 45 minutes, allowing the PNA to enter the Salmonella while simultaneously transporting the PNA-carrying Salmonella into the HeLa cells using the T3SS. […] Post-infection, the cells were washed and incubated with media containing gentamicin for a period of 75 minutes to remove any extracellular bacteria and/or PNA. For all treatments the media was then replaced with fresh gentamicin containing growth medium, with the naked PNA treatment condition also containing 10 μM PNA, and incubated an additional 18 (FIG. 4A). At the end of 18 hours, cultures were analyzed via imaging or measured by intra-epithelial colony forming units (CFU). […] The present inventors obtained similar results in an infection of mouse osteoblast cells (FIG. 11B).
Salmonella infection of HeLa cells and PNA treatment: For a single infection (FIG. 4), SL1344 cultures were inoculated from a single colony on solid media in to 1 mL of LB media and grown for 16 hours at 37° C. with shaking. Cultures were diluted 1:10 and regrown in LB prior to infection. Bacteria were washed thrice with PBS, optical density at 600 nm measured, and diluted to a multiplicity of infection (MOI) of 10 in Dulbecco PBS (DPBS). MOI is calculated based on an established optical density and colony forming unit (CFU) calibration, and the number of mammalian cells per well at the time of infection approximated based on their doubling time. Mammalian cells were washed thrice with Dulbecco's Phosphate-Buffered Saline (DPBS, Fisher Scientific) prior to infection for 45 minutes 37° C. with controlled humidity. […]

α-lexA: 12-mer antisense PNA cGGAATGAAAGC (SEQ ID NO. 17) targeting lexA, conjugated to (KFF)3K cell penetrating peptide via AEEA-linker (antisense CGGAATGAAAGC; all peptide nucleic acid (PNA); (KFF)3K cell-penetrating peptide attached via AEEA linker)
effect on growth (in words) (E. coli MG1655): complete suppression of cell growth
reduction of intra-epithelial Salmonella CFU [1]: ~69±8%
GFP expressing Salmonella in images (in words) [1]: evident decrease in GFP expressing Salmonella
clearing of infection (in words) [1]: not effective in clearing an infection

α-rpsD: 12-mer antisense PNA AGAAAATGGCAA (SEQ ID NO. 19) targeting rpsD, conjugated to (KFF)3K cell penetrating peptide via AEEA-linker (all peptide nucleic acid (PNA); (KFF)3K cell-penetrating peptide attached via AEEA linker)
effect on growth (in words) (E. coli MG1655): effective in killing; also recorded: complete suppression of cell growth
colony forming units per milliliter (E. coli MG1655; within 2 hours of treatment): 0 CFU/mL
reduction of intra-epithelial Salmonella CFU [1]: ~82±13%
GFP expressing Salmonella in images (in words) [1]: evident decrease in GFP expressing Salmonella
clearing of infection (in words) [1]: not effective in clearing an infection
